Article PMC9025269, “Synthesis and Anti-Hepatitis B Activities of 3′-Fluoro-2′-Substituted Apionucleosides” (Molecules, 2022)

Experiments:
[1] = target: T1, HIV-1 reverse transcriptase (HIV-1 RT) (Human immunodeficiency virus type 1 group M subtype B, UniProt P03366); experiment: HIV-1 reverse transcriptase RdDp activity assay; assay type: biochemical
T1 construct: HIV-1 reverse transcriptase (HIV-1 RT) was purchased from Abcam (cat#ab63979); purchased Abcam ab63979
From the text: HIV-1 reverse transcriptase (HIV-1 RT) was purchased from Abcam (cat#ab63979). Recombinant HBV polymerase (Hepatitis B virus genotype D subtype ayw, full length) was cloned using the baculovirus system, expressed in sf9 cells, and purified with similar strategy and methods described by Lanford et al.. A DNA primer (5′-[…]-3′) was synthesized by IDTDNA and a 358-nt RNA template was synthesized in-house using Megascript T7 transcription kit (ThermoFisher, cat#AM1334). dNTPs were purchased from Thermo Fisher and ^3H-dTTP from Perkin Elmer. Filter plates were purchased from Millipore (cat#MABN0V050) and microscint-20 was purchased from Perkin Elmer (cat#6013621).
The RNA-dependent DNA polymerization (RdDp) activity of HIV-1 RT was measured by the incorporation of radioactively labeled nucleotides by HIV-1 RT into acid-insoluble DNA products from the DNA primer primed RNA template. To test compound inhibition, the reactions were performed at 30 °C for 40 min in a reaction mixture containing reaction buffer (50 mM Tris-Cl, pH 7.5, 100 mM KCl, 12.5 mM MgCl2, 4 mM DTT), 1 nM HIV-1 RT, 0.1 µM DNA primer, 0.02 µM RNA template, 10% DMSO, 0.1 µM dATP, 1 µM dGTP, 0.1 µM dCTP, 0.32 µM ^3H-dTTP, and compounds at various concentrations. The 50 µL reactions were performed in 96-well plates. The reactions were quenched with a 60 µL cold mixture of 20% (w/v) TCA and 0.5 mM ATP and incubated at 4 °C for 1 h. The reactions were loaded onto 96-well filter plates. The filters on plates were washed three times with 10% TCA and once with 70% ethanol on a Millipore plate wash station with vacuum applied. The filters on the plate were air-dried and 40 μL Microscint-20 was added to each well. The acid-precipitated tritiated DNA products retained on the filters were detected by a Trilux MicroBeta scintillation reader (Perkin Elmer).
All data were analyzed with GraphPad Prism. The compound concentration at which the enzyme-catalyzed rate was reduced by 50% (IC50) was calculated by fitting the data to the equation Y = % Min + (% Max − % Min) / (1 + 10^((logIC50-X)*h)), where Y corresponds to the percent inhibition to the enzyme activity, % Min is the residual inhibition activity without compound, % Max is the maximum inhibition of enzyme activity at saturating compound concentration, and X corresponds to the log of compound concentrations, and h is the hillslope.

[2] = target: T2, human DNA polymerase α (Homo sapiens, UniProt P09884); experiment: Human DNA polymerase α DdDp assay; assay type: biochemical
T2 construct: purchased CHIMERx 1075-1
T2 sequence (P09884 1-1462): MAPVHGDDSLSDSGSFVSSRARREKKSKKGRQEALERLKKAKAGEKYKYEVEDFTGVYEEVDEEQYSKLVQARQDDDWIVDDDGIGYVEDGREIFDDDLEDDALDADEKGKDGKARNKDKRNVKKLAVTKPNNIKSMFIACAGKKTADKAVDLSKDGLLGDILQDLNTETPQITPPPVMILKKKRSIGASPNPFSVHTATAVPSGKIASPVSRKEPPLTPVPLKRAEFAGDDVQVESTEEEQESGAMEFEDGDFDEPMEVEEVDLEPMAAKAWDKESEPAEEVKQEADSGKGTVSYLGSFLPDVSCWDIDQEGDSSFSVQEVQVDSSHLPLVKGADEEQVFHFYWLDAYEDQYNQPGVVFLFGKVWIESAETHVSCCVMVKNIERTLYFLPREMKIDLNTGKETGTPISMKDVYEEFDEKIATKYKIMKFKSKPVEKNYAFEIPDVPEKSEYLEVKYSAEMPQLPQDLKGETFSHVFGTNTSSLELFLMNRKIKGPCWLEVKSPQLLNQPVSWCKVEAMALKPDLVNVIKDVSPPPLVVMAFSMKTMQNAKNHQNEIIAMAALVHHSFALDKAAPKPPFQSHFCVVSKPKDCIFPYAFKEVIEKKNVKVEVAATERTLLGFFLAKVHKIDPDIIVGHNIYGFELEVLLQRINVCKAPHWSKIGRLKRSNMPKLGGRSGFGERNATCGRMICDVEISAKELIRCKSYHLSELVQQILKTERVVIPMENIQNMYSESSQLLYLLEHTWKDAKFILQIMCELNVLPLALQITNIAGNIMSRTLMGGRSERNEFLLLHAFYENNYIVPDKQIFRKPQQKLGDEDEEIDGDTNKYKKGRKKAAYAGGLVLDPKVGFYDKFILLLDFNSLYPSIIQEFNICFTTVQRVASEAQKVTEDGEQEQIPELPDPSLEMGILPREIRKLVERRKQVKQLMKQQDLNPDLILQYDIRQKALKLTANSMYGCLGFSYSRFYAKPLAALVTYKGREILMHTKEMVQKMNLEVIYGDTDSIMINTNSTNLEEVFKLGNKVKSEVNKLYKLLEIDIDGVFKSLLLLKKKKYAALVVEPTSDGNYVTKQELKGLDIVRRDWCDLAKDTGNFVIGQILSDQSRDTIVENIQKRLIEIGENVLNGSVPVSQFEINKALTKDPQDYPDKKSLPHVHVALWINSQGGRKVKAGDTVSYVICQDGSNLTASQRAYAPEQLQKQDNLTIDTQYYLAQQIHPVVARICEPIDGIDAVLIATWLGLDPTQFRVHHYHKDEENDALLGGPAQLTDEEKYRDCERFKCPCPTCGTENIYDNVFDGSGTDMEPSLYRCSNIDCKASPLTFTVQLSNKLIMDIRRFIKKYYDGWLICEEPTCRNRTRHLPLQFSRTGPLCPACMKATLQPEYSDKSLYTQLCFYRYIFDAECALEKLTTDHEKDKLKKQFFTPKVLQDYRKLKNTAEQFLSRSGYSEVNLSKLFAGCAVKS
Method: The DNA-dependent DNA polymerization (DdDp) activity of human DNA polymerases α, β, and γ was measured as described previously. Briefly, the assays were run with 5 U/mL recombinant DNA polymerase α (CHIMERx, cat#1075-1), 0.5 U/mL recombinant DNA polymerase β (CHIMERx, cat#1077-1), or 0.1 μg/mL recombinant DNA polymerase γ (Abcam, cat#196066), 62 μg/mL activated calf thymus DNA, 50 mM Tris-HCl (pH 8.0), 60 mM KCl, 5 mM MgCl2, 4 mM dithiothreitol (DTT), 0.1 mg/mL BSA, 2 μM dCTP, 2 μM dATP, 2 μM dGTP, 0.05 μCi/μL ^3H-dTTP (Perkin Elmer) and compounds at various concentrations at 30 °C for 2 h. The 50 μL reactions were processed following the same filter plate method as described above for HIV-1 RT. Acid-precipitated tritiated DNA products retained on the filters were detected by a Trilux MicroBeta scintillation reader (Perkin Elmer). All data were analyzed as described above for HIV-1 RT.

Nc1ncnc2c1ncn2[C@@H]1OC[C@](F)(COP(=O)(O)OP(=O)(O)OP(=O)(O)O)[C@H]1CO [Compound 38, ((3S,4S,5R)-5-(6-Amino-9H-purin-9-yl)-3-fluoro-4-(hydroxymethyl)tetrahydrofuran-3-yl)methyl triphosphate]
IC50 [1]: 0.32 µM | inhibition of HIV-1 RT [1]: potent inhibitor of HIV-1 RT | IC50 [2]: 80 µM | inhibition of human DNA polymerases ([2]; human DNA polymerases α, β and γ together): low or no inhibition activity against human DNA polymerases
